From PubChem BioAssay (NCI)
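Step 1: Grow cells in 96-well plates. Step 2: Expose to compound for 48 hours at 5 concentrations. Step 3: Interpolate endpoints linearly; if unreached, use highest concentration. Here, GI50 denotes the concentration required for 50% inhibition of growth. TGI marks complete inhibition of growth.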

Tests used:
Test in all cases: NCI anticancer screen, dose series, 48 h
[1] = system: IGROV1 ovarian
[2] = system: ACHN renal
[3] = system: MDA-MB-468 breast
[4] = system: TK-10 renal
[5] = system: NCI-H226 lung
[6] = system: HCT-15 colon
[7] = system: HL-60(TB) leukemia
[8] = system: 786-0 renal
[9] = system: NCI-H460 lung
[10] = system: NCI-H522 lung
[11] = system: SK-OV-3 ovarian
[12] = system: HCC-2998 colon
[13] = system: HT29 colon
[14] = system: SNB-19 CNS
[15] = system: COLO 205 colon
[16] = system: EKVX NSCLC
[17] = system: A549 NSCLC
[18] = system: SR leukemia
[19] = system: SF-539 CNS
[20] = system: T-47D breast
[21] = system: RPMI-8226 leukemia
[22] = system: PC-3 prostate
[23] = system: CAKI-1 renal
[24] = system: OVCAR-5 ovarian
[25] = system: UACC-257 melanoma
[26] = system: SK-MEL-28 melanoma
[27] = system: U251 CNS
[28] = system: RXF 393 renal
[29] = system: A498 renal
[30] = system: SK-MEL-5 melanoma
[31] = system: SF-295 CNS
[32] = system: DU-145 prostate
[33] = system: K-562 leukemia
[34] = system: MDA-MB-435
[35] = system: M14 melanoma
[36] = system: SW-620 colon
[37] = system: SF-268 CNS
[38] = system: HS 578T breast
[39] = system: CCRF-CEM leukemia
[40] = system: HOP-92 NSCLC
[41] = system: UACC-62 melanoma
[42] = system: NCI/ADR-RES ovarian
[43] = system: OVCAR-8 ovarian
[44] = system: SN12C renal
[45] = system: OVCAR-4 ovarian
[46] = system: HCT-116 colon
[47] = system: MCF7 breast
[48] = system: OVCAR-3 ovarian
[49] = system: BT-549 breast
[50] = system: LOX IMVI melanoma
[51] = system: HOP-62 NSCLC
[52] = system: NCI-H23 lung
[53] = system: MOLT-4 leukemia
[54] = system: KM12 colon
[55] = system: MALME-3M melanoma

CC[C@]12C=CCN3CC[C@@]4(c5ccc(OC)cc5N(C)[C@H]4[C@@](O)(C(=O)OC)[C@@H]1OC(=O)CCCC[P+](c1ccc(F)cc1)(c1ccc(F)cc1)c1ccc(F)cc1)[C@@H]32
GI50 [1]: 10.8 µM | TGI [1]: 24.3 µM | GI50 [2]: > 100 µM | TGI [2]: > 100 µM | GI50 [3]: 2.61 µM | TGI [3]: 11.1 µM | GI50 [4]: 21.2 µM | TGI [4]: 52.6 µM | GI50 [5]: 27.3 µM | TGI [5]: > 100 µM | GI50 [6]: > 100 µM | TGI [6]: > 100 µM | GI50 [7]: 2.11 µM | TGI [7]: 13.2 µM | GI50 [8]: 34.1 µM | TGI [8]: > 100 µM | GI50 [9]: 29.4 µM | TGI [9]: > 100 µM | GI50 [10]: 5.44 µM | TGI [10]: 20.2 µM | GI50 [11]: 23.5 µM | TGI [11]: 66.5 µM | GI50 [12]: 12.5 µM | TGI [12]: 25.5 µM | GI50 [13]: 15.4 µM | TGI [13]: 38.8 µM | GI50 [14]: 13 µM | TGI [14]: 26.7 µM | GI50 [15]: 4.63 µM | TGI [15]: 16.4 µM | GI50 [16]: 21 µM | TGI [16]: > 100 µM | GI50 [17]: 33.8 µM | TGI [17]: > 100 µM | GI50 [18]: 14.5 µM | TGI [18]: 31.9 µM | GI50 [19]: 21.9 µM | TGI [19]: 62.4 µM | GI50 [20]: 11.5 µM | TGI [20]: 43.2 µM | GI50 [21]: 2.97 µM | TGI [21]: 14.9 µM | GI50 [22]: 16.4 µM | TGI [22]: 56.7 µM | GI50 [23]: > 100 µM | TGI [23]: > 100 µM | GI50 [24]: 29.1 µM | TGI [24]: > 100 µM | GI50 [25]: 5.58 µM | TGI [25]: 19.2 µM | GI50 [26]: 8.28 µM | TGI [26]: 20.7 µM | GI50 [27]: 10.7 µM | TGI [27]: 23.3 µM | GI50 [28]: 13.3 µM | TGI [28]: 31.6 µM | GI50 [29]: > 100 µM | TGI [29]: > 100 µM | GI50 [30]: 17.1 µM | TGI [30]: 30.8 µM | GI50 [31]: 30.6 µM | TGI [31]: > 100 µM | GI50 [32]: 35.4 µM | TGI [32]: > 100 µM | GI50 [33]: 11.3 µM | TGI [33]: 38.7 µM | GI50 [34]: 12.9 µM | TGI [34]: 28.4 µM | GI50 [35]: 14.7 µM | TGI [35]: 30 µM | GI50 [36]: 16.5 µM | TGI [36]: 37.8 µM | GI50 [37]: 17.6 µM | TGI [37]: 38.3 µM | GI50 [38]: 16.9 µM | TGI [38]: 37.5 µM | GI50 [39]: 13.6 µM | TGI [39]: 30.3 µM | GI50 [40]: 6.32 µM | TGI [40]: 23.5 µM | GI50 [41]: 11.3 µM | TGI [41]: 23.5 µM | GI50 [42]: > 100 µM | TGI [42]: > 100 µM | GI50 [43]: 29.4 µM | TGI [43]: > 100 µM | GI50 [44]: 28.6 µM | TGI [44]: > 100 µM | GI50 [45]: 25.1 µM | TGI [45]: > 100 µM | GI50 [46]: 25.9 µM | TGI [46]: > 100 µM | GI50 [47]: 11.5 µM | TGI [47]: 24.5 µM | GI50 [48]: 9.3 µM | TGI [48]: 23.3 µM | GI50 [49]: 12.9 µM | TGI [49]: 27.1 µM | GI50 [50]: 16.8 µM | TGI [50]: 30.8 µM | GI50 [51]: 25.5 µM | TGI [51]: 73.4 µM | GI50 [52]: 20.1 µM | TGI [52]: 53.5 µM | GI50 [53]: 14.7 µM | TGI [53]: 32.6 µM | GI50 [54]: 13.4 µM | TGI [54]: 27.7 µM | GI50 [55]: 13.5 µM | TGI [55]: 27.3 µM
